Data as given in patent US11896680B2, “Detection method” (Mie University, priority 2017, dated 2024).

Key:
[1] = system: large intestine of a mouse (normal mucosal tissue); assay: vital staining of normal mouse large intestine, imaged with confocal or multiphoton laser microscope
Experimental: (§1) 100 mg of curcumin (Tokyo Kasei, cat. #C2302, purity 97.0%) was suspended in 5 mL of ethanol, and further diluted 10-fold with ethanol. It was mixed with the same amount of glycerin, and further diluted 10-fold with glycerin. The mixture was mixed with the same amount of purified water to obtain a staining solution of curcumin. As for Red #106, its staining solution is obtained by dissolving the powder in saline to the concentration of 1 mg/mL.
(§2) C57BL/6N mice purchased from Japan SLC, Inc. were used in the tests. All tests were performed on male, 8-week-old mice weighing 20˜25 grams.
(§3) A multiphoton laser microscope of FVMPE-RS (Olympus) was used with the irradiation wavelength of 800 nm. Laser irradiation was performed at 5.8˜48.2% of its full power output. A confocal laser microscope of FV1000 (Olympus) was used with the irradiation wavelength of 488 nm and 594 nm, wherein the laser irradiation at 488 nm was performed at […] of its full power output, and the laser irradiation at 594 nm was performed at 13˜13.5% of its full power output. The direction of irradiation and staining from serosal or luminal side are described in the figures.

[2] = system: large intestine (cancer tumor site) of a colon cancer mouse; assay: vital staining of cancer tumor site in large intestine of colon cancer mouse, imaged with laser microscope; assay type: in vivo
Experimental: as §1, §2
Model mice with colon cancer were prepared by intraperitoneally administering 10 mg/kg of azoxymethane (AOM) dissolved in saline 4 times at weekly intervals to C57BL/6N mice.
as §3

[3] = five-layer structure of normal large intestine
[4] = stained from serosa side, confocal laser microscope, FIG. 5c
[5] = stained and photographed from luminal side, FIG. 11A and 11B

SMILES	staining of network of capillaries surrounding the glandular structures of epithelial and glandular layers (1) [1, 3]	staining of the smooth muscle in muscle layer (4) [1, 3]	staining of the smooth muscle in muscularis mucosae (2) [1, 3]	staining of the wall of a thick blood vessel inside muscle layer [1, 3]	staining of Auerbach's plexus inside muscle layer [1, 3]	staining of glandular cells in epithelial and glandular layers (1) [1, 3]	staining of nerve fibers of Auerbach's plexus [1, 4]	staining of perikaryon of Auerbach's plexus [1, 4]	staining of cytoplasm of invaded cancer cells inside smooth muscle layer relative to surrounding tissues ([2]; stained and observed from serosal side, confocal laser microscope, FIG. 10A)	staining of cytoplasm of cancer cells [2, 5]	staining of nuclei of cancer cells [2, 5]
CCN(CC)c1ccc2c(-c3ccc(S(=O)(=O)[O-])cc3S(=O)(=O)[O-])c3ccc(=[N+](CC)CC)cc-3oc2c1.[Na+] [Red #106]	severely positive	mildly positive	mildly positive	severely positive							
COc1cc(/C=C/C(=O)CC(=O)/C=C/c2ccc(O)c(OC)c2)ccc1O [curcumin]		mildly positive	severely positive		severely positive	severely positive	lightly	darkly	darker than surrounding tissues	stained severely	stained negatively
